In patent US9487787B2, “Method for regulating protein function in cells using synthetic small molecules” (The Board of Trustees of the Leland Stanford Junior …, priority 2007, dated 2016):
Peptide text beside a SMILES is read from it. * marks the point of attachment. Cbz = O=C(OCc1ccccc1)*

Columns and labels:
[1] = tested on: FKBP variant fusions to proteins of interest in NIH3T3 cells; assay: Immunoblot of proteins of interest fused to FKBP destabilizing domains, mock or 1 μM Shield1; format: cell-based
Method: (FIG. 4A) FKBP variants F15S and L106P were fused to the N-termini of several different proteins and transduced into NIH3T3 cells. Cell populations stably expressing the fusions were then either mock-treated or treated with 1 μM Shield1, and cell lysates were subjected to immunoblot analysis using antibodies specific for the protein of interest. Endogenous proteins served as loading controls (when detected) and Hsp90 served as a loading control otherwise. (FIG. 4B) FKBP variants D100G and L106P were fused to the C-termini of several different proteins of interest and treated as above.
An additional example is CD8α, a transmembrane glycoprotein found on the surface of T cells, which was able to be detected on the surface of cells by flow cytometry (FIG. 5), in a Shield1-dependent manner. […] Here, NIH3T3 cells stably expressing the fusion proteins were divided into three pools (groups). The first group (−) was mock-treated, the second group (+) was treated with 1 μM Shield1 for 24 hrs, and the third group (+/−) was treated with 1 μM Shield1 for 24 hrs, and then washed with media and cultured for 24 hr in the absence of Shield1. Live cells were then probed with a FITC-conjugated anti-CD8α antibody and assayed by flow cytometry. Data are presented as the average mean fluorescence intensity±SEM from an experiment performed in triplicate.

[2] = molecular target: T1, FKBP L106P-YFP fusion protein (Homo sapiens, UniProt P62942, F37V); assay: Shield1 dose-response stabilization of FKBP-YFP fusion, flow cytometry; format: cell-based
T1 construct: expressed in transfected cells
T1 sequence (P62942 with tags, fused parts or gaps F37V): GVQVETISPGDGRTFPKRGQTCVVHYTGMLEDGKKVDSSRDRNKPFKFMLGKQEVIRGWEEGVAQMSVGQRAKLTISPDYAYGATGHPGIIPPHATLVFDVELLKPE
Method: (§1) The data for FIGS. 2A-2D are presented as the average mean fluorescence intensity (MFI)±SEM relative to that of the maximum fluorescence intensity observed for the individual mutant. Experiments were performed in triplicate. (FIG. 2A) Fluorescence of FKBP-YFP fusion proteins expressed in NIH3T3 cells as determined by flow cytometry in the absence of Shield1. (FIG. 2B) NIH3T3 cells stably expressing FKBP-YFP fusion proteins were treated with three-fold dilutions of Shield1 (1 μM to 0.1 nM) and the fluorescence was monitored by flow cytometry. (FIG. 2C) NIH3T3 cells stably expressing FKBP-YFP fusion proteins were either mock-treated (circles) or treated with 30 nM Shield1 (squares), 100 nM Shield1 (diamonds), 300 nM Shield1 (crosses), or 1 μM Shield1 (triangles). Fluorescence was monitored over time using flow cytometry. MFI was normalized to 100% of cells treated with 1 μM Shield1 at 24 hrs. (FIG. 2D) NIH3T3 cells stably expressing FKBP-YFP fusion proteins were treated with 1 μM Shield1 for 24 hours at which point the cells were washed with media to remove Shield1, and the decrease in fluorescence was monitored using flow cytometry.
(§2) Twenty-four hours prior to analysis, transduced NIH3T3 cells were plated at 1×10^5 cells per well of a 12-well plate and treated as described. Cells were removed from the plate using PBS+2 mM EDTA, washed once with PBS, and resuspended in 200 μl PBS. Cells were analyzed at the Stanford Shared FACS Facility using FlasherII with 10,000 events represented.
(§3) Each variant FKBP-derived, ligand-responsive destabilizing domain was separately transduced into NIH3T3 cells, and YFP fluorescence levels were measured in the absence of Shield1 (FIG. 2A). […] The most destabilizing variation, L106P, produced YFP fluorescence at a level of only 1-2% relative to the positive control. All FKBP-derived, ligand-responsive destabilizing domain variants produced increased fluorescence signal when incubated in the presence of Shield1 ([…]). […]

[3] = molecular target: T2, FKBP V24A-YFP fusion protein (Homo sapiens, UniProt P62942, F37V/V25A); assay: as above; format: cell-based; settings: NIH3T3 cells stably expressing V24A FKBP-YFP; extracellular Shield1 giving 50% of maximum YFP signal; read-out: EC50 of stabilization (rescue) by Shield1
T2 construct: expressed in transfected cells; host or cells: NIH3T3 (retroviral transduction)
T2 sequence (P62942 2-108 V25A/F37V): as the sequence (P62942 with tags, fused parts or gaps F37V) above, with V24A, P106L counted along it
Method: as §1, §2, §3

FKBP F36V variant = FKBP F36V variant (Homo sapiens, UniProt P62942, F37V); settings: Clackson et al. 1998; cited from earlier work
FKBP F36V variant, sequence (P62942 2-108 F37V limits assumed): as the sequence (P62942 with tags, fused parts or gaps F37V) above, with P106L counted along it

YFP fusion protein = assay: Immunoblot of YFP fusion protein in transfected Plasmodium; format: cell-based, Plasmodium falciparum
FKBP-YFP fusion proteins [4] = molecular target: T3, FKBP-YFP fusion proteins (Homo sapiens, UniProt P62942, F37V); assay: Kinetics of FKBP-YFP fluorescence upon addition of Shield1; format: cell-based; settings: NIH3T3 cells transduced with L106P-YFP
T3 construct: expressed in transfected cells
T3 sequence (P62942 with tags, fused parts or gaps F37V): as the sequence (P62942 with tags, fused parts or gaps F37V) above
Method: as §1
(§4) FIG. 8 is a graph showing the kinetics of FKBP-YFP fluorescence in cells upon addition of Shield1. NIH3T3 cells stably expressing the indicated FKBP-YFP fusions were treated with 1 μM Shield1, and increases in fluorescence were monitored over time using flow cytometry. Data are presented as the average mean fluorescence intensity (MFI)±SEM relative to that of the maximum fluorescence intensity observed for the individual variant. The experiment was performed in triplicate, and MFI was normalized to 100% at 24 hr.
(§5) In a kinetic study of NIH3T3 cells stably expressing each of the five FKBP-derived, ligand-responsive destabilizing domain variants, YFP fluorescence increased at approximately the same rate upon addition of Shield1, with maximum fluorescence achieved at 24 hours and stably maintained for at least an additional 48 hours without further addition of Shield1 (FIG. 2C). […]

FKBP-YFP fusion proteins [5] = assay: as above; format: cell-based, human; settings: NIH3T3 cells stably expressing FKBP-YFP variants
Method: as §1, §4, §5

[6] = tested on: L106P-RhoA, L106P-Cdc42, Arl7-L106P in NIH3T3 cells; assay: Ligand-dependent control of cell morphology by GTPase fusions, confocal microscopy; format: cell-based; settings: Shield1-treated, mock-treated or Shield1 removed
Method: NIH3T3 cells stably expressing constitutively active GTPases fused to destabilizing domains were treated with 1 μM Shield1 for 24 hr. At this time, cells were washed once with PBS, plated at 8×10^3 cells in 4-well LabTek Chambered coverglass (NUNC) coated with 1 mg/ml poly-D-lysine (Sigma), along with mock-treated transduced cells and transduced cells treated with 1 μM Shield1. Cells were cultured for 24 hr in 10% DBS, then cultured in serum-free media for 12 hr. Cells were then washed with PBS, fixed in 4% paraformaldehyde for 15 min, permeabilized in 0.2% Triton X-100 for 5 min, stained with 1 μg/ml Alexa Fluor 488-conjugated phalloidin (Invitrogen; A12379) in PBS for 20 min, and washed with PBS. Fixed cells were imaged using a Bio-Rad Radiance 2100 confocal microscope.
Expression of constitutively active small GTPases causes well-characterized changes in cellular morphology (Heo and Meyer, 2003). To determine if FKBP-derived destabilizing domains, in combination with Shield1, could affect cell morphology by modulating GTPases levels, several small GTPases (i.e., RhoA, Cdc42, or Arl7) were fused to the destabilizing domains (FIGS. 4A and 4B). NIH3T3 cells were individually transduced with the L106P-RhoA, L106P-Cdc42, or Arl7-L106P (note arrangement of fusions), and then mock-treated or treated with Shield1, and visualized using confocal microscopy (not shown). […]

[7] = tested on: falcipain-2 fused to the F36V/L106P FKBP mutant; assay: Conditional falcipain stabilization, swollen vacuole phenotype; format: cell-based, Plasmodium falciparum
falcipain-2 fused to the F36V/L106P FKBP mutant, sequence (P62942 with tags, fused parts or gaps F37V limits assumed): as the sequence (P62942 with tags, fused parts or gaps F37V) above
Text: In a related experiment, fusion proteins were made with falcipain-2, a cysteine protease. Knocking out the falcipain-2 gene causes vacuole swelling resulting from the decreased ability of the organisms to degrade hemoglobin. Fusion of falcipain-2 to the F36V/L106P FKBP mutant produced a conditional falcipain stabilization system.

[8] = tested on: FKBP-derived stability-affecting domain fused to the N-terminus of YFP; assay: Time lapse fluorescence microscopy of parasitophorous vacuoles in infected HFF cells; format: cell-based, Toxoplasma gondii; settings: T. gondii in HFF cells
Text: The fluorescence of parasitophorous vacuoles in infected cells was monitored by time lapse microscopy following addition (FIG. 6B) or removal of ligand (FIG. 6C). Background fluorescence is indicated.
Nucleotides expressing the fusion the fusion protein were introduced into T. gondii parasites, which were then used to infect HFF cells. The parasitophorous vacuoles in the infected cells were monitored by time lapse fluorescence microscopy following the addition of ligand (Shield1; FIG. 6B) or following the removal of ligand (FIG. 6C). The indicated control line corresponds to background fluorescence, while each of the other lines in the graphs correspond to individual infected cells.

[9] = tested on: luciferase fused to FKBP-derived stability-affecting protein (F36V/L106P); assay: Bioluminescence imaging of mice challenged with HCT116 tumor cells expressing luciferase-FKBP fusion; format: in vivo, SCID mice
luciferase fused to FKBP-derived stability-affecting protein (F36V/L106P), sequence (P62942 with tags, fused parts or gaps F37V limits assumed): as the sequence (P62942 with tags, fused parts or gaps F37V) above
Text: FIGS. 7A and 7B are graphs showing the results of an experiments in which SCID mice were challenged with tumor cells genetically manipulated to express luciferase fused to a stability-affecting protein.
HCT116 cancer cells were transfected with a nucleic acids encoding the reporter gene luciferase fused to an FKBP-derived stability-affecting protein (F36V/L106P) mutant. Stable transformants were then selected and used to challenge SCID mice.
The results of an experiments in which SCID were challenged with tumor cells harboring nucleic acids encoding luciferase fused to an FKBP-derived, stability-affecting protein (F36V/L106P) are shown in FIGS. 7A and 7B. The mice were either untreated or treated with the indicated amounts of ligand (Shield1) and bioluminescent signals were imaged over time as described (Lin, A. H., et al. (2005) J. Immunol. 175:547-54; Luo, J., et al. (2006) Proc. Nat'l. Acad. Sci. USA 103:18326-31; n=4-10 mice per treatment group).

proteasome = assay: Immunoblot of F15S-YFP and L106P-YFP after Shield1 withdrawal with proteasome inhibitors; format: cell-based; settings: 10 μM, 4 hrs, F15S-YFP and L106P-YFP in NIH3T3
Method: Immunoblot analysis was performed using an anti-YFP antibody.
The mechanism of degradation was examined for the F15S and L106P variants. Since the ubiquitin-proteasome system is a major mediator of intracellular protein degradation (Pickart, 2004), the cells expressing either the FKBP-derived, ligand-responsive destabilizing domain variants F15S or L106P were incubated with MG132 (FIG. 2F) or lactacystin (FIG. 9), which inhibit ubiquitin-proteasome-mediated protein degradation.

1-[2-(3,4,5-trimethoxy-phenyl)-butyryl]-piperazine-2-carboxylic acid 3-(3,4-dimethoxy-phenyl)-1-[3-(2-morpholin-4-yl-ethoxy)-phenyl]-propyl ester [Shield1]
Shield1-dependent stability of fusion proteins [1]: Shield1-dependent stability
L106P-YFP stabilization upon addition of Shield1 ([2]; 1 μM Shield1): fully stabilized
EC50 ([2]; NIH3T3 cells stably expressing L106P FKBP-YFP): ~100 nM
EC50 [3]: ~5 nM
binding to F36V variant compared to wild-type FKBP (FKBP F36V variant): about 1,000 fold
levels of YFP fusion protein in the presence of ligand (YFP fusion protein): greatly increased
time within which YFP expression is observed after Shield1 treatment (FKBP-YFP fusion proteins [4]): ≤ 15 min
additional time maximum fluorescence is stably maintained without further addition of Shield1 (FKBP-YFP fusion proteins [5]): ≥ 48 h
time at which maximum fluorescence is achieved after addition of Shield1 (FKBP-YFP fusion proteins [5]): 24 h
percentage of cells displaying the predicted morphology (penetrance) [6]: > 90%
organisms with swollen vacuole phenotype, presence of ligand compared to absence [7]: More than 5 times
levels of YFP on addition / removal of ligand [8]: levels of YFP increase in the presence of ligand and decrease in the absence of ligand
effect of repeated administration of the ligand ([9]; 10 mg/kg Shield1 every 48 hours): continued luciferase stabilization
time of peak luminescence following a single injection of ligand ([9]; SCID mice, HCT116 luciferase-FKBP F36V/L106P tumors): about 10 hours
dependence of luminescence on ligand dose ([9]; SCID mice, single injection): dependent on ligand dose

CC(C)C[C@@H](C=O)NC(=O)[C@H](CC(C)C)NC(=O)[C@H](CC(C)C)NC(=O)OCc1ccccc1 [MG132] (Cbz-Leu-Leu-Leu-aldehyde)
effect on degradation of variant FKBP fusion proteins following withdrawal of Shield1 (proteasome): inhibited degradation

CC(=O)N[C@@H](CSC(=O)[C@]1([C@@H](O)C(C)C)NC(=O)[C@H](C)[C@@H]1O)C(=O)O [lactacystin]
effect on degradation of variant FKBP fusion proteins following withdrawal of Shield1 (proteasome): inhibited degradation
